Experimental data as given in US10668127B2, “Method and composition for synchronizing time of insemination” (UNITED-AH II, LLC, priority 2009, dated 2020).

Columns and labels:
sows [1] = test: Ovulation detection by transrectal ultrasonography (Examples 1-7); type: in vivo, swine; details: for OV48 (%): 48 h after treatment, OG, LS means
Method: Approximately 120 parity one to seven sows (30 sows within each treatment group) were used to obtain ovulation and reproductive tract data. All sows were of the same genotype (PIC C22). Following 16 to 24 days of lactation, sows were blocked by length of lactation and parity and randomly assigned to one of four treatments: 1) a placebo group, receiving a placebo gel at 96±2 hours post-weaning and a single AI 24 hours later, 2) triptorelin gel at 96±2 hours post-weaning and AI 18 to 20 hours later. 3) triptorelin gel at 96±2 hours post-weaning and AI 24 to 26 hours later, and 4) triptorelin gel at 96±2 hours post-weaning and AI 30 to 32 hours later. The placebo formulation was identical to the active formulation but without the hormone being present. All treatments were deposited into the anterior vagina within 2 cm of the cervix. Follicular development and ovulation was monitored via real time ultrasound at 24, 32, 40, 48, and 56 hours after treatment. Thirty (30) days after insemination, all sows were slaughtered and reproductive tracts obtained. Pregnancy rates and embryo survival were determined. Triptorelin was administered at 96 hours (±2 hr) post-weaning as a single 2 mL dose deposited approximately 1-2 cm posterior to the cervix with a modified artificial insemination catheter. Weaning of sows occurred between 10 a.m. and noon on Day (O). The timing of the insemination for each group of sows was given as directed in the protocol. Those sows scheduled to be inseminated 18 hours following administration of triptorelin were generally inseminated between 6:00 a.m. and 8:00 a.m. the following day, those sows scheduled to be inseminated 24 hours following administration of triptorelin were generally inseminated between noon and 2:00 p.m. the following day and those sows scheduled to be inseminated 30 hours following administration of triptorelin were generally inseminated between 6:00 p.m. and 8:00 p.m. the following day. The single insemination for each sow was performed as they were normally done at the farm. […] Ultrasonography was performed at 24 hr (±1.5 hour) after treatment on Day 5 and again at 8:00 p.m. (±1.5 hour) on Day 5. On Day 6 transrectal ultrasonography was performed at 4:00 a.m. (±1 hour), noon (±1 hr) and 8:00 p.m. (±1 hr) until ovulation was complete or until the 8:00 p.m. ultrasonography on Day 6 (the 56 hour mark from the animals treated at 96 hours post-weaning) whichever came first. An Aloka 500 ultrasound machine was used for this purpose, with a 7.5 MHz linear array transducer attached to a fixed-angle PVC stabilizing rod to facilitate insertion into the rectum. The transducer and PVC rod were coated with a gynecological lubricant and gently inserted into the rectum until the ovaries could be visualized, one at a time. The diameters of the three largest follicles were to be recorded (to the nearest 0.1 mm) at each scanning. A sow was declared to have ovulated when the number of large follicles 6.5 mm) fell to less than 3. […] For all analyses, the models contained the fixed effects of treatment (placebo controls inseminated 24 hours after treatment, triptorelin treated sows inseminated 18 hours after treatment, triptorelin treated sows inseminated 24 hours after treatment and triptorelin treated sows inseminated 30 hours after treatment) and replicate. The records for sow parity and lactation length were included as covariates. First order interaction of treatment and replicate was tested and removed when non-significant. […]

sows [2] = test: Pregnancy rate and litter size at slaughter 30 days after insemination (Examples 1-7); type: in vivo, swine; details: OG, LS means; for Pregnant (%): pregnant at slaughter of all sows allotted
Method: Approximately 120 parity one to seven sows (30 sows within each treatment group) were used to obtain ovulation and reproductive tract data. All sows were of the same genotype (PIC C22). Following 16 to 24 days of lactation, sows were blocked by length of lactation and parity and randomly assigned to one of four treatments: 1) a placebo group, receiving a placebo gel at 96±2 hours post-weaning and a single AI 24 hours later, 2) triptorelin gel at 96±2 hours post-weaning and AI 18 to 20 hours later. 3) triptorelin gel at 96±2 hours post-weaning and AI 24 to 26 hours later, and 4) triptorelin gel at 96±2 hours post-weaning and AI 30 to 32 hours later. The placebo formulation was identical to the active formulation but without the hormone being present. All treatments were deposited into the anterior vagina within 2 cm of the cervix. Follicular development and ovulation was monitored via real time ultrasound at 24, 32, 40, 48, and 56 hours after treatment. Thirty (30) days after insemination, all sows were slaughtered and reproductive tracts obtained. Pregnancy rates and embryo survival were determined. Triptorelin was administered at 96 hours (±2 hr) post-weaning as a single 2 mL dose deposited approximately 1-2 cm posterior to the cervix with a modified artificial insemination catheter. Weaning of sows occurred between 10 a.m. and noon on Day (O). The timing of the insemination for each group of sows was given as directed in the protocol. Those sows scheduled to be inseminated 18 hours following administration of triptorelin were generally inseminated between 6:00 a.m. and 8:00 a.m. the following day, those sows scheduled to be inseminated 24 hours following administration of triptorelin were generally inseminated between noon and 2:00 p.m. the following day and those sows scheduled to be inseminated 30 hours following administration of triptorelin were generally inseminated between 6:00 p.m. and 8:00 p.m. the following day. The single insemination for each sow was performed as they were normally done at the farm. […] There was a tendency (p=0.09) for triptorelin treated sows inseminated at 18 hours (12.4 fetuses) and at 24 hours (11.8 fetuses) post treatment to have a higher number of healthy fetuses than triptorelin treated sows inseminated at 30 hours (8.6) post treatment and for vehicle treated sows inseminated at 24 hours (8.6) following treatment. […] For all analyses, the models contained the fixed effects of treatment (placebo controls inseminated 24 hours after treatment, triptorelin treated sows inseminated 18 hours after treatment, triptorelin treated sows inseminated 24 hours after treatment and triptorelin treated sows inseminated 30 hours after treatment) and replicate. The records for sow parity and lactation length were included as covariates. First order interaction of treatment and replicate was tested and removed when non-significant. Differences between treatments were tested on least squares means estimates using the T test at P<0.05.

SMILES: CC(C)C[C@H](NC(=O)[C@@H](Cc1c[nH]c2ccccc12)NC(=O)[C@H](Cc1ccc(O)cc1)NC(=O)[C@H](CO)NC(=O)[C@H](Cc1c[nH]c2ccccc12)NC(=O)[C@H](Cc1c[nH]cn1)NC(=O)[C@@H]1CCC(=O)N1)C(=O)N[C@@H](CCCNC(=N)N)C(=O)N1CCC[C@H]1C(=O)NCC(N)=O [triptorelin, pGlu-His-Trp-Ser-Tyr-D-Trp-Leu-Arg-Pro-Gly-NH2]
- sows ovulating during their most synchronous 24 hr period (sows [1]; 120 to 144 hr after weaning, triptorelin treated sows): 70-77%
- OV48 (%) (sows [1]; AI 18 h): 74.0%
- OV48 (%) (sows [1]; AI 24 h): 77.0%
- OV48 (%) (sows [1]; AI 30 h): 76.8%
- percentage of sows ovulating by 56 hours after treatment (sows [1]; average of triptorelin treated sows): 80.4%
- Number of Healthy Fetuses (sows [2]; AI 18 h): 12.4
- Number of Healthy Fetuses (sows [2]; AI 24 h): 11.8
- Number of Healthy Fetuses (sows [2]; AI 30 h): 8.6
- Pregnant (%) (sows [2]; AI 18 h): 74.4%
- Pregnant (%) (sows [2]; AI 24 h): 68.1%
- Pregnant (%) (sows [2]; AI 30 h): 62.3%
